# Experimental data as given in patent US12491243B2, “Formulation containing TLR agonist and methods of use” (ACCESS TO ADVANCED HEALTH INSTITUTE, priority 2016, dated 2025).
# Columns and labels:
# [1] = Adsorption to Alhydrogel® (aluminum oxyhydroxide): unbound material assayed in centrifuged supernatant; assay type: physicochemical; conditions: for TLR Agonist Conc. In Supernatant (T = 16 wks): storage at 5° C.; for TLR Agonist Conc. In Supernatant (T = 16 wks) / TLR Agonist Conc. In Supernatant (T = 0): the ligand itself, in combinations first value = 3M-052
# Experimental: Adjuvant formulation characterization and stability. Aqueous nanosuspensions were characterized for particle size by dynamic light scattering (DLS) using the Malvern Instruments (Worcestershire, UK) Zetasizer Nano-S or —ZS. Aqueous nanosuspensions were diluted 1:10 or 1:100 fold in water in a polystyrene cuvette prior to analysis, which consisted of three measurements resulting in a scattering intensity-biased average diameter value reported as the Z-ave. Zeta potential was measured using the Zetasizer Nano-ZS using a disposable capillary cell, with nine consecutive measurements collected from each sample prepared at 1:10 dilution in water. In general, 3M-052 concentration was measured by UV absorbance at 322.5 nm after diluting formulations 1:20 into ethanol:HCl (98:2 v:v) and comparing to a standard curve. The dilution into organic solvent removes potential interference from light scattering of the nanosuspension particles. However, for the 3M-052 binding isotherm, where maximum sensitivity was desired, no dilution was performed for the samples or the standards. Alternatively, 3M-052 concentration was determined by reverse phase HPLC with charged aerosol detection. TLR9 CpG control concentration was measured by UV absorbance at 260 nm after 1:20 dilution into ethanol:HCl. GLA concentration was measured by reverse-phase HPLC with an C18 column (Atlantis T3 or Agilent XBridge) and charged aerosol detection (CAD) using a methanol:chloroform:water mobile gradient as described previously (6). To detect unbound TLR ligand, alum-containing formulations were centrifuged briefly as indicated and the supernatant assayed by UV absorbance or HPLC-CAD. Depending on experiment, centrifugation time was 2-5 min at 2,000-16,000×g. In some experiments (FIG. 2D and Table 4), to remove the influence of saline or buffer salts on the sedimentation of TLR agonists in aluminum salt preparations, aluminum salts were first centrifuged and the supernatants removed and replaced with water; this process was repeated for another wash prior to employing the aluminum salts in the binding studies.
# Antigen adsorption to aluminum salts. Binding efficiency of 3M-052 and ID93 or HIV gp120 antigen to Alhydrogel® and AdjuPhos® was determined by UV-Vis Spectroscopy and SDS-PAGE with silver stain. 1-mL of formulation was prepared by mixing saline diluent, antigen, 3M-052-AF, and/or aluminum salt. To determine HIV gp120 antigen adsorption, 30 μl of sample supernatant was mixed with 10 μl of 4× reducing or non-reducing LDS Sample Buffer, following which 20-25 μl was loaded into a 10-lane SDS-PAGE gel with 15 μl of SeeBlue2 Prestained Standard. To determine ID93 adsorption, 45 μl of sample supernatant was mixed with 15 μl of 4× reducing LDS Sample Buffer, following which 25 μl was loaded into a 10-lane SDS-PAGE gel with 15 μl of SeeBlue2 Prestained Standard. The gels were run for 55 minutes at 190 V and then placed into a fixing solution of 50:40:10 EtOH:CH3COOH:H2O for overnight. […]
# To determine the adsorption capacity of Alhydrogel® for 3M-052-AF, the nanosuspension at various concentrations was mixed with aluminum oxyhydroxide and allowed to sit for ˜30 min with intermittent vortexing, followed by centrifugation such that the aluminum particles pelleted. […] The adsorption stability of 3M-052-AF on Alhydrogel® over time was evaluated by assaying samples for unbound 3M-052 before and after storage at 5° C. for 16 wks. […]
# [2] = target: T1, human TLR8 (Homo sapiens, UniProt Q9NR97); conditions: in vitro; reference (5); cited from earlier work
# T1 sequence (Q9NR97 27-1041): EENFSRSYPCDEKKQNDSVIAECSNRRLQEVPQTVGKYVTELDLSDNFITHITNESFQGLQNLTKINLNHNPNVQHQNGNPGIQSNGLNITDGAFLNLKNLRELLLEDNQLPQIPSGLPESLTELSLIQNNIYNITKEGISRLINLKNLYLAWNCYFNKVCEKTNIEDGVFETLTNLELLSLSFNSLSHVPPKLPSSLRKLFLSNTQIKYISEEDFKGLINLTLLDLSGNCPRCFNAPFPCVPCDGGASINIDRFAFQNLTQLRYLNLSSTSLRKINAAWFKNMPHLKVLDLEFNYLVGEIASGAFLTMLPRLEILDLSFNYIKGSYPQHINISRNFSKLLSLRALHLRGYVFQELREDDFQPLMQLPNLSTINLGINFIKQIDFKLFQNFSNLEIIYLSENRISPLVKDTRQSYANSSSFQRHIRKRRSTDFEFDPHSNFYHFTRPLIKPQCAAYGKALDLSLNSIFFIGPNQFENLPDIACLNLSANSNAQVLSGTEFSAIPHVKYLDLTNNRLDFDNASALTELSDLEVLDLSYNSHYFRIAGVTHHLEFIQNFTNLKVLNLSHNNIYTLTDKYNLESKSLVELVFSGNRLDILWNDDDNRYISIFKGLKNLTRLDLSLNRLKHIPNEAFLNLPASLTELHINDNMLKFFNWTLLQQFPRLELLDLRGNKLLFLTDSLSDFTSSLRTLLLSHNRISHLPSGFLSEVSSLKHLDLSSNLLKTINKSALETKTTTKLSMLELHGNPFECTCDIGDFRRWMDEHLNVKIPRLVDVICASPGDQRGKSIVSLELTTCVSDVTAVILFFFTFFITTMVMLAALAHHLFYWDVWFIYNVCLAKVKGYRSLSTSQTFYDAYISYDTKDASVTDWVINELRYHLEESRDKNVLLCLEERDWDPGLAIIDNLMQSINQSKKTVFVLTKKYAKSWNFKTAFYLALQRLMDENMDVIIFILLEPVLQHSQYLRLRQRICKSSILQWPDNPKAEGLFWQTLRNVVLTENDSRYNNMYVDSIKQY
# [3] = imidazoquinolines such as 3M-052; reference (9); cited from earlier work
# [4] = target: T2, human TLR7 (Homo sapiens, UniProt Q9NYK1); conditions: in vitro; reference (5); cited from earlier work
# T2 sequence (Q9NYK1 27-1049): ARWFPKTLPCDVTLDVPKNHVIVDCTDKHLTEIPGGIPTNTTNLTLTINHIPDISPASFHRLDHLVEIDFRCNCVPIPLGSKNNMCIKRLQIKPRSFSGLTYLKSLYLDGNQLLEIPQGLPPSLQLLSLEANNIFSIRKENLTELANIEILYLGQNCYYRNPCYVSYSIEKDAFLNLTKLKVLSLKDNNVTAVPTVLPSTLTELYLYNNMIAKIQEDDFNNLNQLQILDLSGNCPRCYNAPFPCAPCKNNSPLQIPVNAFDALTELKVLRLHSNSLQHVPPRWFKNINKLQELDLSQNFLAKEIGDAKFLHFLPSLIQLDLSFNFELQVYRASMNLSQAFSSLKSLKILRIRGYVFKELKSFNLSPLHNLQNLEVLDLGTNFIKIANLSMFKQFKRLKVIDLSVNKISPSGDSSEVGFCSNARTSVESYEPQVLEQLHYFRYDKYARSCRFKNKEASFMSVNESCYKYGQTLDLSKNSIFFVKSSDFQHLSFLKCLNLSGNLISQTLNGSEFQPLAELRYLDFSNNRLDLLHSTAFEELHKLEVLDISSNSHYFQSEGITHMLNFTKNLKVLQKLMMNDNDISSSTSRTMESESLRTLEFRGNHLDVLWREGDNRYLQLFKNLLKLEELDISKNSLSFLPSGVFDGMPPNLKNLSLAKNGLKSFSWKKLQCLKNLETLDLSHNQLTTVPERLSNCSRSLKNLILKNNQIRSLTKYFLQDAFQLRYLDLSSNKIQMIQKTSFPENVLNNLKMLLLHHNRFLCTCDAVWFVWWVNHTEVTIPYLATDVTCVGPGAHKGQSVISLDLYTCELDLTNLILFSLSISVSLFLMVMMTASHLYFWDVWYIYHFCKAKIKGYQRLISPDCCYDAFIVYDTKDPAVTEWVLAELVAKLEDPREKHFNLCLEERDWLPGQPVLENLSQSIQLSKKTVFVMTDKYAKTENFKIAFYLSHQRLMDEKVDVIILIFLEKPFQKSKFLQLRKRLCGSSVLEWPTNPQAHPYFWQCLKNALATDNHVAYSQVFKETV
smiles,measurement,setting,value
"CCCCCCCCCCCCCCCCCC(=O)NCCCCOn1c(CCCC)nc2c(N)nc3ccccc3c21 [3M-052, N-(4-{[4-amino-2-butyl-1H-imidazo[4,5-c]quinolin-1-yl]oxy}butyl)octadecanamide]",effect of other TLR ligands on adsorption of 3M-052 to aluminum oxyhydroxide,[1]; co-adsorbed GLA or TLR9 CpG control (Table 2),did not appear to interfere
same,TLR Agonist Conc. In Supernatant (T = 16 wks),[1]; no aluminum salt (control),74 ± 1 µg/mL
same,TLR Agonist Conc. In Supernatant (T = 0),[1]; no aluminum salt (control),94 ± 1 µg/mL
same,TLR Agonist Conc. In Supernatant (T = 16 wks),[1]; with Alhydrogel®,10 ± 1 µg/mL
same,TLR Agonist Conc. In Supernatant (T = 0),[1]; with Alhydrogel®,11 ± 1 µg/mL
same,activation of human TLR8,[2],activates
same,pKa,[3],~7
same,activation of human TLR7,[4],activates
